Patent publication US11180474B2 (BRISTOL-MYERS SQUIBB COMPANY, priority 2016, dated 2021)

What was measured:
human TLR9 = biological target: T1, human TLR9 (Homo sapiens, UniProt Q9NR96); experiment: TLR9 inhibition reporter assay (HEK-Blue cells, SEAP reporter, ODN2006 stimulation); type: cell-based; settings: HEK-Blue cells overexpressing human TLR9, ODN2006 5 nM
T1 construct: host or cells: HEK-Blue cells
T1 sequence (Q9NR96 26-1032): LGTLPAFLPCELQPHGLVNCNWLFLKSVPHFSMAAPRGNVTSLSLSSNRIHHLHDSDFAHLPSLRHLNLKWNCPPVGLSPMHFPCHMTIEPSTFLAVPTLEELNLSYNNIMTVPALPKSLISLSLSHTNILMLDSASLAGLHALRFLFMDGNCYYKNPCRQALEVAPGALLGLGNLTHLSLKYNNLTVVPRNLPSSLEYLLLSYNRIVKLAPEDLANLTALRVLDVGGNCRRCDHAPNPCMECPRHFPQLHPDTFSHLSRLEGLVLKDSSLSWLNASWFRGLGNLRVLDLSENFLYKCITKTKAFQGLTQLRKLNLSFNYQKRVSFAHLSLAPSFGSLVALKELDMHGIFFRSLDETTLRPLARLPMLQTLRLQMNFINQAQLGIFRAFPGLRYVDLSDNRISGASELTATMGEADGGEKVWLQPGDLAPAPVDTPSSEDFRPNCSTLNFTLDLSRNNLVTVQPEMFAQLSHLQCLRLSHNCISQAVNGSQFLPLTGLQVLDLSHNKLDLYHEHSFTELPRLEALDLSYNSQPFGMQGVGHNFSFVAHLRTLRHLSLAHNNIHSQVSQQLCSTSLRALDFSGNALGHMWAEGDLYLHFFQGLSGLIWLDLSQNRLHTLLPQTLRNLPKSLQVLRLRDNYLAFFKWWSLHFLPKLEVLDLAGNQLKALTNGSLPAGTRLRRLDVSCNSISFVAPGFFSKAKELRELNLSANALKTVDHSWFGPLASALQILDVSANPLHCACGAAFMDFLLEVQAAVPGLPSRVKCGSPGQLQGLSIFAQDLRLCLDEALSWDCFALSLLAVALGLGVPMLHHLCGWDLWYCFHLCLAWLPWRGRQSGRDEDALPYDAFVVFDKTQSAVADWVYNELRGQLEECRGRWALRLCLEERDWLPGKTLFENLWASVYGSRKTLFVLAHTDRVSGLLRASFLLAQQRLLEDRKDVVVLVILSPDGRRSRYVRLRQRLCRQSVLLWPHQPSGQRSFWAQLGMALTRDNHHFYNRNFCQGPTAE
In short: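 Human TLR7/8/9 HEK-Blue reporter lines; dose range 0.05 nM–50 μM; 30 min RT preincubation; stimulus gardiquimod 7.5 μM / R848 15.9 μM / ODN2006 5 nM respectively; 22 h, 37 °C; SEAP detected colorimetrically.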

human TLR8 = biological target: T2, human TLR8 (Homo sapiens, UniProt Q9NR97); experiment: TLR8 inhibition reporter assay (HEK-Blue cells, SEAP reporter, R848 stimulation); type: cell-based; settings: HEK-Blue cells overexpressing human TLR8, R848 15.9 μM
T2 construct: host or cells: HEK-Blue cells
T2 sequence (Q9NR97 27-1041): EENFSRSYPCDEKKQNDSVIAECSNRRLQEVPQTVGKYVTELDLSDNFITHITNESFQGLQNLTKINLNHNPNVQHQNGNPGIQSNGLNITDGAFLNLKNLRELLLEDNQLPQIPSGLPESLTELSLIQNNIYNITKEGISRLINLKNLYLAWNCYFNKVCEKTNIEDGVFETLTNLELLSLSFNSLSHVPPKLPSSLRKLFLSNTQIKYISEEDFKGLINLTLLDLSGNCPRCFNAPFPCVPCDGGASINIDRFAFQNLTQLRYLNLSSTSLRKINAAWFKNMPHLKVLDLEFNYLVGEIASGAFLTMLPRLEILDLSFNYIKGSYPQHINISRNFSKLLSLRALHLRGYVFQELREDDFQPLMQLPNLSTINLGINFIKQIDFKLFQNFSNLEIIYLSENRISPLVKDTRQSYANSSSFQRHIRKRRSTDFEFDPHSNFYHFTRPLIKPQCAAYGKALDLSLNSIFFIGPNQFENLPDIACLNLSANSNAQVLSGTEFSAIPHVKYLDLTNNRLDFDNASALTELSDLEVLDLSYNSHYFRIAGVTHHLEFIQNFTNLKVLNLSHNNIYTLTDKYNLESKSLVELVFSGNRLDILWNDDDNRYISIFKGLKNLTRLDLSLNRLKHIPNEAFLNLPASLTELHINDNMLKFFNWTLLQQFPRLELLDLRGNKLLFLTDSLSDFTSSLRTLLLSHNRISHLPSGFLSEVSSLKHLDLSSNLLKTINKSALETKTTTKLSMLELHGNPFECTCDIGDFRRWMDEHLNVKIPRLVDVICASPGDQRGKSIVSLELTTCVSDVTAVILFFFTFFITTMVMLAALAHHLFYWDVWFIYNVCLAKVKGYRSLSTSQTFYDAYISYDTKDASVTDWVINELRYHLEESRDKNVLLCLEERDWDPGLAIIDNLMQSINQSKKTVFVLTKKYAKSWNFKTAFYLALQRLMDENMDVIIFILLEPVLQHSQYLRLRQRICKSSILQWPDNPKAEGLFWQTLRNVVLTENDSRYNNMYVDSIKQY
In short: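 Cells (15000/well for TLR7, 20,000 for TLR8) were treated with compounds over 0.05 nM-50 μM final. After 22 h at 37° C, 5% CO2, SEAP was measured with HEK-Blue Detection reagent; percent inhibition was taken as reduction of agonist-plus-DMSO signal relative to a known inhibitor.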

With COc1ccc(-c2[nH]c3ccc(C4CCN(C(=O)CN(C)C)CC4)cc3c2C(O)C(F)(F)F)cc1OC (stereo not drawn) [Example 395, 1-(4-(2-(3,4-dimethoxyphenyl)-3-(2,2,2-trifluoro-1-hydroxyethyl)-1H-indol-5-yl)piperidin-1-yl)-2-(dimethylamino)ethan-1-one] the IC50 (human TLR9) was 13200 nM and the IC50 (human TLR8) was 438 nM.
COc1ccc(-c2[nH]c3ccc(C4CCN(C(=O)Cc5cnccn5)CC4)cc3c2CC(F)(F)F)cc1OC [Example 342, 1-(4-(2-(3,4-dimethoxyphenyl)-3-(2,2,2-trifluoroethyl)-1H-indol-5-yl)piperidin-1-yl)-2-(pyrazin-2-yl)ethan-1-one] gave an IC50 (human TLR9) of 26400 nM and an IC50 (human TLR8) of 591 nM.
In the case of COc1ccc(-c2[nH]c3ccc(C4CCN(C(=O)CCC(=O)N(C)C)CC4)cc3c2CC(F)(F)F)cc1OC [Example 346, 4-(4-(2-(3,4-dimethoxyphenyl)-3-(2,2,2-trifluoroethyl)-1H-indol-5-yl)piperidin-1-yl)-N,N-dimethyl-4-oxobutanamide], the IC50 (human TLR9) is reported as 2940 nM and the IC50 (human TLR8) is reported as 529 nM.
Work on COc1ccc(-c2[nH]c3ccc(C4CCN(CC(=O)N5CCC(N(C)C)CC5)CC4)cc3c2CC(F)(F)F)cc1OC [Example 364, 2-(4-(2-(3,4-dimethoxyphenyl)-3-(2,2,2-trifluoroethyl)-1H-indol-5-yl)piperidin-1-yl)-1-(4-(dimethylamino)piperidin-1-yl)ethan-1-one] yielded an IC50 (human TLR9) of 563 nM and an IC50 (human TLR8) of 76 nM.
CCN(CC)C(=O)C1CCCN(CC(=O)N2CCC(c3ccc4[nH]c(-c5ccc(OC)c(OC)c5)c(C)c4c3)CC2)C1 (stereo not drawn) [Example 404, 1-(2-(4-(2-(3,4-dimethoxyphenyl)-3-methyl-1H-indol-5-yl)piperidin-1-yl)-2-oxoethyl)-N,N-diethylpiperidine-3-carboxamide] showed an IC50 (human TLR9) of 8640 nM and an IC50 (human TLR8) of 3750 nM.
Molecule COc1ccc(-c2[nH]c3ccc(C4CCNCC4F)cc3c2C(C)C)cc1OC (racemic) [Example 320, 2-(3,4-dimethoxyphenyl)-5-(3-fluoropiperidin-4-yl)-3-isopropyl-1H-indole] has an IC50 (human TLR9) of 5020 nM and an IC50 (human TLR8) of 124 nM.
COc1ccc(-c2[nH]c3ccc(C4CCN(CC(=O)NCCCN5CCCC5=O)CC4)cc3c2CC(F)(F)F)cc1OC [Example 376, 2-(4-(2-(3,4-dimethoxyphenyl)-3-(2,2,2-trifluoroethyl)-1H-indol-5-yl)piperidin-1-yl)-N-(3-(2-oxopyrrolidin-1-yl)propyl)acetamide] gave an IC50 (human TLR9) of 2900 nM and an IC50 (human TLR8) of 65 nM.
For COc1ccc(-c2[nH]c3ccc(C4CCN(CC(=O)NCCCn5ccnc5)CC4)cc3c2CC(F)(F)F)cc1OC [Example 383, N-(3-(1H-imidazol-1-yl)propyl)-2-(4-(2-(3,4-dimethoxyphenyl)-3-(2,2,2-trifluoroethyl)-1H-indol-5-yl)piperidin-1-yl)acetamide], the IC50 (human TLR9) was 660 nM and the IC50 (human TLR8) was 30 nM.
With COc1ccc(-c2[nH]c3ccc(C4CCN(C(=O)C[C@H](C)O)CC4)cc3c2CC(F)(F)F)cc1OC [Example 352, (S)-1-(4-(2-(3,4-dimethoxyphenyl)-3-(2,2,2-trifluoroethyl)-1H-indol-5-yl)piperidin-1-yl)-3-hydroxybutan-1-one] the IC50 (human TLR9) was 28900 nM and the IC50 (human TLR8) was 765 nM.
Molecule COc1ccc(-c2[nH]c3ccc(C4CCNCC4F)cc3c2C(C)C)cc1OC (single isomer, unassigned) [Example 321, 2-(3,4-dimethoxyphenyl)-5-(3-fluoropiperidin-4-yl)-3-isopropyl-1H-indole] has an IC50 (human TLR9) of 4500 nM and an IC50 (human TLR8) of 21 nM.
Molecule COc1ccc(-c2[nH]c3ccc(C4CCN(CC(=O)N(C)C5CCN(C)C5)CC4)cc3c2CC(F)(F)F)cc1OC (stereo not drawn) [Example 370, 2-(4-(2-(3,4-dimethoxyphenyl)-3-(2,2,2-trifluoroethyl)-1H-indol-5-yl)piperidin-1-yl)-N-methyl-N-(1-methylpyrrolidin-3-yl)acetamide] has an IC50 (human TLR9) of 399 nM and an IC50 (human TLR8) of 55 nM.
COc1ccc(-c2[nH]c3ccc(C4CCN(C(=O)CN(C)C)CC4)cc3c2C)cc1OC [Example 402, 1-(4-(2-(3,4-dimethoxyphenyl)-3-methyl-1H-indol-5-yl)piperidin-1-yl)-2-(dimethylamino)ethan-1-one] gave an IC50 (human TLR9) of 5820 nM and an IC50 (human TLR8) of 2280 nM.
